Laboratory results taken from PubChem BioAssay AID2060882 (Molecular Pharmacology Branch, DTP, NCI, 2025).

Test system: 898857-211-R-J1-PDC complex spheroids, growth % test/control
Experiment: Anticancer human tumor 898857-211-R-J1-PDC patient-derived melanoma cell line growth inhibition [RAS]
Details: for IC50: curve of first compound; for viability, T/C: stronger effect = lower value; active = viability on the fitted dose curve at most 10% of control; inactive = the rest
In short: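 Agents were tested in combination matrices in half-log decrements from a top concentration at or near clinical Cmax (10 microM if undetermined). Targets were multi-cell spheroids of tumour lines plus HUVEC and MSC stromal cells.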

[1] = second compound 0.000949 µM, first compound 0.0316 µM
[2] = second compound 0.000949 µM, first compound 0.1 µM
[3] = second compound 0.000949 µM, first compound 0.316 µM
[4] = second compound 0.000949 µM, first compound 1 µM
[5] = second compound 0.003 µM, first compound 0.0316 µM
[6] = second compound 0.003 µM, first compound 0.1 µM
[7] = second compound 0.003 µM, first compound 0.316 µM
[8] = second compound 0.003 µM, first compound 1 µM
[9] = second compound 0.00949 µM, first compound 0.0316 µM
[10] = second compound 0.00949 µM, first compound 0.1 µM
[11] = second compound 0.00949 µM, first compound 0.316 µM
[12] = second compound 0.00949 µM, first compound 1 µM
[13] = second compound 0.03 µM, first compound 0.0316 µM
[14] = second compound 0.03 µM, first compound 0.1 µM
[15] = second compound 0.03 µM, first compound 0.316 µM
[16] = second compound 0.03 µM, first compound 1 µM
[17] = second compound 0.0949 µM, first compound 0.0316 µM
[18] = second compound 0.0949 µM, first compound 0.1 µM
[19] = second compound 0.0949 µM, first compound 0.316 µM
[20] = second compound 0.0949 µM, first compound 1 µM
[21] = second compound 0.3 µM, first compound 0.0316 µM
[22] = second compound 0.3 µM, first compound 0.1 µM
[23] = second compound 0.3 µM, first compound 0.316 µM
[24] = second compound 0.3 µM, first compound 1 µM
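Also: spheroids exposed to compound for seven days before readout.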
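For viability, T/C in this document: 100% = DMSO vehicle control wells.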

CC(=O)OC12COC1CC(O)C1(C)C(=O)C(O)C3=C(C)C(OC(=O)C(O)C(NC(=O)OC(C)(C)C)c4ccccc4)CC(O)(C(OC(=O)c4ccccc4)C21)C3(C)C (stereo unspecified) + CCn1c(-c2cc(N3CCN(C)CC3)cnc2C(C)OC)c2c3cc(ccc31)-c1csc(n1)CC(NC(=O)C1CC1C)C(=O)N1CCCC(N1)C(=O)OCC(C)(C)C2
< 31.6 nM: IC50 (second compound 0.000949 µM) | IC50 (second compound 0.003 µM) | IC50 (second compound 0.00949 µM) | IC50 (second compound 0.03 µM) | IC50 (second compound 0.0949 µM) | IC50 (second compound 0.3 µM)
inactive: viability, T/C [1] 11.2% | viability, T/C [2] 9.4% | viability, T/C [3] 9.05% | viability, T/C [4] 13.3% | viability, T/C (second compound 0.000949 µM, first compound 3.16 µM) 13.9% | viability, T/C (second compound 0.000949 µM, first compound 10 µM) 14.7% | viability, T/C [5] 11.4% | viability, T/C [6] 12.9% | viability, T/C [7] 9.53% | viability, T/C [8] 12.5% | viability, T/C (second compound 0.003 µM, first compound 3.16 µM) 12.7% | viability, T/C (second compound 0.003 µM, first compound 10 µM) 12.8% | viability, T/C [9] 10.9% | viability, T/C [10] 11.4% | viability, T/C [11] 13% | viability, T/C [12] 12.4% | viability, T/C (second compound 0.00949 µM, first compound 3.16 µM) 14.6% | viability, T/C (second compound 0.00949 µM, first compound 10 µM) 14.2% | viability, T/C [13] 10.9% | viability, T/C [14] 10.7% | viability, T/C [15] 13.3% | viability, T/C [16] 12.9% | viability, T/C (second compound 0.03 µM, first compound 3.16 µM) 15.6% | viability, T/C (second compound 0.03 µM, first compound 10 µM) 14.6% | viability, T/C [17] 12.1% | viability, T/C [18] 12.2% | viability, T/C [19] 12.3% | viability, T/C [20] 14.4% | viability, T/C (second compound 0.0949 µM, first compound 3.16 µM) 14.4% | viability, T/C (second compound 0.0949 µM, first compound 10 µM) 15.4% | viability, T/C [21] 12.9% | viability, T/C [22] 11.9% | viability, T/C [23] 11.8% | viability, T/C [24] 15.8% | viability, T/C (second compound 0.3 µM, first compound 3.16 µM) 14.9% | viability, T/C (second compound 0.3 µM, first compound 10 µM) 18.7%

CCc1c2c(nc3ccc(O)cc13)-c1cc3c(c(=O)n1C2)COC(=O)[C@]3(O)CC + CCn1c(-c2cc(N3CCN(C)CC3)cnc2C(C)OC)c2c3cc(ccc31)-c1csc(n1)CC(NC(=O)C1CC1C)C(=O)N1CCCC(N1)C(=O)OCC(C)(C)C2
active: viability, T/C (second compound 0.000949 µM, first compound 0.0949 µM) 6.43% | viability, T/C (second compound 0.000949 µM, first compound 0.3 µM) 6.55% | viability, T/C (second compound 0.003 µM, first compound 0.0949 µM) 8.03% | viability, T/C (second compound 0.003 µM, first compound 0.3 µM) 5.94% | viability, T/C (second compound 0.00949 µM, first compound 0.0949 µM) 7.12% | viability, T/C (second compound 0.00949 µM, first compound 0.3 µM) 7.62% | viability, T/C (second compound 0.03 µM, first compound 0.0949 µM) 7.45% | viability, T/C (second compound 0.03 µM, first compound 0.3 µM) 5.98% | viability, T/C (second compound 0.0949 µM, first compound 0.0949 µM) 7.78% | viability, T/C (second compound 0.0949 µM, first compound 0.3 µM) 6.37% | viability, T/C (second compound 0.3 µM, first compound 0.03 µM) 9.8% | viability, T/C (second compound 0.3 µM, first compound 0.0949 µM) 7.03% | viability, T/C (second compound 0.3 µM, first compound 0.3 µM) 7.37%
3.37 nM: IC50 (second compound 0.00949 µM)
3.6 nM: IC50 (second compound 0.3 µM)
inactive: viability, T/C (second compound 0.000949 µM, first compound 0.000949 µM) 78.6% | viability, T/C (second compound 0.000949 µM, first compound 0.003 µM) 55.3% | viability, T/C (second compound 0.000949 µM, first compound 0.00949 µM) 25.9% | viability, T/C (second compound 0.000949 µM, first compound 0.03 µM) 8.36% | viability, T/C (second compound 0.003 µM, first compound 0.000949 µM) 79.7% | viability, T/C (second compound 0.003 µM, first compound 0.003 µM) 53.8% | viability, T/C (second compound 0.003 µM, first compound 0.00949 µM) 25.5% | viability, T/C (second compound 0.003 µM, first compound 0.03 µM) 8.25% | viability, T/C (second compound 0.00949 µM, first compound 0.000949 µM) 82.9% | viability, T/C (second compound 0.00949 µM, first compound 0.003 µM) 52.6% | viability, T/C (second compound 0.00949 µM, first compound 0.00949 µM) 24.3% | viability, T/C (second compound 0.00949 µM, first compound 0.03 µM) 9.47% | viability, T/C (second compound 0.03 µM, first compound 0.000949 µM) 79.3% | viability, T/C (second compound 0.03 µM, first compound 0.003 µM) 56.2% | viability, T/C (second compound 0.03 µM, first compound 0.00949 µM) 27% | viability, T/C (second compound 0.03 µM, first compound 0.03 µM) 9.94% | viability, T/C (second compound 0.0949 µM, first compound 0.000949 µM) 86.1% | viability, T/C (second compound 0.0949 µM, first compound 0.003 µM) 55.3% | viability, T/C (second compound 0.0949 µM, first compound 0.00949 µM) 28% | viability, T/C (second compound 0.0949 µM, first compound 0.03 µM) 9.13% | viability, T/C (second compound 0.3 µM, first compound 0.000949 µM) 87.5% | viability, T/C (second compound 0.3 µM, first compound 0.003 µM) 55.5% | viability, T/C (second compound 0.3 µM, first compound 0.00949 µM) 20.6%
3.54 nM: IC50 (second compound 0.003 µM)
3.72 nM: IC50 (second compound 0.000949 µM)
3.84 nM: IC50 (second compound 0.03 µM)
3.78 nM: IC50 (second compound 0.0949 µM)

Nc1ccn(C2OC(CO)C(O)C2(F)F)c(=O)n1 (stereo unspecified) + CCn1c(-c2cc(N3CCN(C)CC3)cnc2C(C)OC)c2c3cc(ccc31)-c1csc(n1)CC(NC(=O)C1CC1C)C(=O)N1CCCC(N1)C(=O)OCC(C)(C)C2
5.47 nM: IC50 (second compound 0.0949 µM)
6.69 nM: IC50 (second compound 0.3 µM)
4.37 nM: IC50 (second compound 0.003 µM)
4.35 nM: IC50 (second compound 0.00949 µM)
inactive: viability, T/C (second compound 0.000949 µM, first compound 0.00316 µM) 74% | viability, T/C (second compound 0.000949 µM, first compound 0.01 µM) 15.3% | viability, T/C (second compound 0.003 µM, first compound 0.00316 µM) 64.6% | viability, T/C (second compound 0.003 µM, first compound 0.01 µM) 13.1% | viability, T/C (second compound 0.00949 µM, first compound 0.00316 µM) 63.7% | viability, T/C (second compound 0.00949 µM, first compound 0.01 µM) 14.4% | viability, T/C (second compound 0.03 µM, first compound 0.00316 µM) 78% | viability, T/C (second compound 0.03 µM, first compound 0.01 µM) 18% | viability, T/C (second compound 0.0949 µM, first compound 0.00316 µM) 72% | viability, T/C (second compound 0.0949 µM, first compound 0.01 µM) 25.8% | viability, T/C (second compound 0.3 µM, first compound 0.00316 µM) 88.6% | viability, T/C (second compound 0.3 µM, first compound 0.01 µM) 29.3%
active: viability, T/C [1] 4.42% | viability, T/C [2] 3.83% | viability, T/C [3] 4.13% | viability, T/C [4] 5.1% | viability, T/C [5] 4.34% | viability, T/C [6] 4.05% | viability, T/C [7] 5.71% | viability, T/C [8] 4.93% | viability, T/C [9] 4.77% | viability, T/C [10] 4.27% | viability, T/C [11] 4.44% | viability, T/C [12] 4.67% | viability, T/C [13] 4.69% | viability, T/C [14] 3.93% | viability, T/C [15] 5.09% | viability, T/C [16] 5.74% | viability, T/C [17] 4.97% | viability, T/C [18] 4.59% | viability, T/C [19] 5.07% | viability, T/C [20] 4.89% | viability, T/C [21] 5.64% | viability, T/C [22] 3.79% | viability, T/C [23] 4.58% | viability, T/C [24] 4.96%
5.4 nM: IC50 (second compound 0.03 µM)
5.06 nM: IC50 (second compound 0.000949 µM)
